One assay relates to adult S. mansoni. Nature of the assay: Movement assay of cultured adult S. mansoni (Example 2). It counts as cell-based. The settings on record: Schistosoma mansoni; for IC50: read-out: IC50, inhibition of serotonin evoked schistosome movement. The source says: (§1) Female Swiss Webster mice infected with S. mansoni cerceria (NMRI strain) were sacrificed 49 days post infection by CO2 euthanasia. Adult schistosomes were recovered by perfusion with a solution of 0.85% sodium chloride+0.75% sodium citrate and dissection of the mesenteric vasculature. Harvested schistosomes were washed in RPMI 1640 Medium with GlutaMAX+5% heat inactivated FBS (Gibco) and Penicillin-Streptomycin (final concentration 100 units/mL, ThermoFisher cat #15140122).
For movement assays, worms were cultured 37° C./5% CO2 in vented 100×25 mm petri dishes (ThermoFisher cat #4031) containing 50 mL of media and used between 1-3 days after harvesting. Prior to assessing worm movement, individuals were transferred to a six well dish (4-5 individuals per well) containing 3 mL drug solution in RPMI 1640 supplemented with HEPES (25 mM) and MS (5%). Videos were recorded using a Zeiss Discovery v20 stereomicroscope and a QiCAM 12-bit cooled color CCD camera controlled by metamorph imaging software (version 7.8.1.0). 1 minute recordings were acquired at 4 frames per second, saved as a .TIFF stack, and movement was analyzed using ImageJ software as described in (PMID: 27187180, PMID: 27397763).

For assay [1], the system named is S. mansoni schistosomules. Nature of the assay: Schistosomule contractility assay. It counts as cell-based. The settings on record: Schistosoma mansoni. On the procedure: FIGS. 14A-14F. […] Effects of selected ligands on schistosomules. […] A contractile cycle is defined when a deviation of ≥20% of the average body length (dashed lines) occurs.
Biomphalaria glabrata (M-line) snails exposed to Schistosoma mansoni miracidia (Strain PR-1) were obtained from BEI Resources (Cat. number NR-21961) and cercaria were shed following exposure to light (1.5 hours). Cercaria were manually transformed into schistosomula by vortexing (3×45 seconds, each separated by 3 minutes on ice) and tails were removed by gradient centrifugation (24 mL Percoll, 4 mL 10×EMEM, 1.5 ml penicillin-streptomycin, 1 mL of 1M HEPES in 0.85% NaCl, 9.5 ml distilled water) at 500 g/15 minutes at 4° C. Supernatant containing tails was discarded, and schistosomules were resuspended in Basch media and incubated (37° C., 5% CO2) overnight before conducting mobility assays. For contractility experiments, somules were incubated in 5-HT free Basch media to resolve a basal contractility rate. […] Schistosomules were incubated in 24 well plates (about 200 schistosomules/0.5 mL media per well) for 30 minutes (37° C./5% CO2) prior to acquiring videos of schistosome movement (1 minute recordings/well) using a Nikon Coolpix 5700 camera affixed to a Nikon Eclipse TS100 microscope (10× objective). The WrmTrck plugin for ImageJ was used to quantify worm mobility (El-Shehabi et al., 2012). Briefly, the major axis of each schistosomule body length was extracted from the raw output of WrmTrck and an average length was determined for the duration of the recording. Contractions were quantified by determining the number of episodes during which the worm body length deviated from the average by over 20%. S. mansoni protocols were approved by the Iowa State University Institutional Biosafety Committee.

The target of assay [2] is T1, Sm.5HTR (Schistosoma mansoni, UniProt G4V5G4). It counts as cell-based. The settings on record: for potency (IC50) at Sm.5HTR, lower right quadrant of FIG. 13: inhibition of cAMP generation. How it is done:
(§2) HEK293 cells (ATCC CRL-1573.3) were cultured in DMEM supplemented with 10% fetal bovine serum (FBS), penicillin (100 units/mL), streptomycin (100 μg/mL), and L-glutamine (290 μg/mL). Cells were transiently transfected (ViaFect, Promega) as per the manufacturer's protocol at a density of 2×10^6 cells per T-25 cell-culture flask. Cells were transfected with plasmids encoding GloSensor (Promega) and either Sm.5HTR, (Smp_126730, GenBank accession number KF444051.1) or Sm.5HTRL (KX150867), both GPCRs being codon optimized for mammalian expression, or Hs.5HT7a (GenBank accession number NM_000872.4, R&D Systems) subcloned into pCS2(−). Cell culture reagents were from Invitrogen. Epitope tagged constructs were used to verify expression, and untagged constructs used for all luminescence assays.
(§3) For assays performed on adherent cells, HEK-293 cells were transferred one day post transfection to 96 well, solid white plates (Corning, cat #3917) coated with 0.01% poly-L-lysine (Sigma Aldrich) at a density of 5×10^4 cells/well in DMEM supplemented with 1% dialyzed FBS (Gibco). After overnight culture (37° C./5% CO2), media was decanted and replaced with 100 μL/well HBSS supplemented with 0.1% BSA, 20 mM HEPES (pH 7.4) and GloSensor™ reagent. Plates were allowed to equilibrate at room temperature for two hours prior to performing luminescence assays (GloMax-Multi Detection System plate reader, Promega). Conditions for individual assays were described as per figure legends. The standard assay to detect changes in cAMP utilized the F22 sensor in media supplemented with IBMX (200 μM). Ligands were added at a concentration of 20× per well for experiments (i.e., 5 μl of drug solution added to 100 μL of cells). […] For the resazurin reduction assay for cellular viability, cells were incubated with resazurin (final concentration, 10 μM) and tested ligands with fluorescence measurements (560 nm excitation/590 nm emission) made at 1.5 hours intervals.
(§4) The protocol for screening is shown schematically in FIG. 5A. HEK293 cells transiently transfected with either the human 5HT7 receptor (Hs.5HT7R) or the schistosome receptor (Sm.5HTR) were exposed to test ligands in a 96-well plate format. […] Luminescence was then read at a fixed time point (t=60 minutes, FIG. 5A). Hits were assigned as compounds that evoked a ≥50% decrease in luminescence output at the fixed time sampling point (FIG. 5B).

Another assay deals with T2, Hs.5HT7R (Homo sapiens, UniProt P34969).
T2 construct: host or cells: HEK293 (ATCC CRL-1573.3), transient, pCS2(−), co-transfected with GloSensor
T2 sequence (P34969 1-445 isoform P34969-2): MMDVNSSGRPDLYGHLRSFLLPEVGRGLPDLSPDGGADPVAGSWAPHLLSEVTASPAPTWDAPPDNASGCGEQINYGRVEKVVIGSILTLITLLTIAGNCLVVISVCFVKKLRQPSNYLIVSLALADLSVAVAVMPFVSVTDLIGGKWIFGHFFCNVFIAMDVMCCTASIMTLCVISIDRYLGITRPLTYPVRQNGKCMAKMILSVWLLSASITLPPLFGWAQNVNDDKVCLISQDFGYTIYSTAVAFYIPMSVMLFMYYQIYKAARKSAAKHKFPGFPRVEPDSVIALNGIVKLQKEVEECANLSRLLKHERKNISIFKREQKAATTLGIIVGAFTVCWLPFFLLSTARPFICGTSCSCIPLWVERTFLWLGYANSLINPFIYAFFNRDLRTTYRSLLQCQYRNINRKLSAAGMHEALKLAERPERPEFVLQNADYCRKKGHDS
As to the kind of experiment: GloSensor cAMP assay, HEK293 cells transiently transfected with Hs.5HT7R. The class given is cell-based. The conditions noted are these: inhibition of cAMP generation. How it is done: as §2, §3, §4

Assay [3] concerns the target T1, Sm.5HTR. It counts as cell-based. The conditions noted are these: 10 μM for 30 minutes, washout, 5-HT response 1 hour later (FIGS. 11B-D). How it is done: Colors correspond to drug identity in C&D. Data represent mean±s.e.m., n=3 (C-E).
To test putative irreversible antagonists, assays on suspension cells were performed one day post transfection. Cells in a T-75 flask were trypsinized (0.25% w/v) and transferred to a 14 mL tube, centrifuged at 300 RCF, and resuspended in HBSS supplemented with 0.1% BSA, 20 mM HEPES. Compounds were added at 10 μM, and after 30 minutes incubation at room temperature cells were centrifuged (300 RCF, 5 minutes) and resuspended in fresh media. This wash step was repeated, and cells were resuspended in HBSS supplemented with 0.1% BSA, 20 mM HEPES and GloSensor reagent. […]

The test system of another assay is adult schistosomes. Nature of the assay: Egg laying assay, adult schistosome pairs in vitro. It counts as cell-based, Schistosoma mansoni. The conditions noted are these: serotonin 100 μM, forskolin 100 μM, LSD 10 μM, nuciferine 10 μM, ergotamine 5 μM (FIG. 19F); eggs per worm pair/day over five days.
Text: as §1
For egg laying assays, adult schistosomes were transferred to 24 well plates the day after harvesting from mice (5 worm pairs in 2 mL media per well). Eggs were counted under a stereomicroscope daily, after which worms were transferred to a new well with fresh drug containing media. Egg counts were recorded for five days, and data processed as the mean number of eggs laid per worm pair/day. Measurements of egg dimensions were quantified using the “analyze>measure” function in ImageJ to record the length and width of individual eggs.

Assay [4] deals with Sm.5HTR (Schistosoma mansoni, UniProt A0A173FEI8). As to the kind of experiment: cell-based. On the procedure: HEK293 cells (ATCC CRL-1573.3) were cultured in growth media consisting of DMEM supplemented with GlutaMAX (Gibco cat #10566016)+10% heat inactivated fetal bovine serum and penicillin-streptomycin (100 units/mL, ThermoFisher). Stable cell lines for the pGloSensor-22F cAMP Plasmid (Promega) and schistosome 5HTRs in pcDNA3.1(−) were selected with hygromycin (200 μg/mL) and G418 (400 μg/mL). The correct identity of each stably expressed sequence was verified by isolating total RNA from each stable line (TRIzol Reagent, Ambion) and amplifying the sequence of interest with gene specific primers flanking the 5′ and 3′ regions of the cds (SuperScript® III One-Step RT-PCR System, Invitrogen). PCR products were ligated into a TA cloning vector (pGEM-T Easy, Promega) and sequenced.
Sequence of Sm.5HTR (Schistosoma mansoni, UniProt A0A173FEI8) (A0A173FEI8 entry or part of it): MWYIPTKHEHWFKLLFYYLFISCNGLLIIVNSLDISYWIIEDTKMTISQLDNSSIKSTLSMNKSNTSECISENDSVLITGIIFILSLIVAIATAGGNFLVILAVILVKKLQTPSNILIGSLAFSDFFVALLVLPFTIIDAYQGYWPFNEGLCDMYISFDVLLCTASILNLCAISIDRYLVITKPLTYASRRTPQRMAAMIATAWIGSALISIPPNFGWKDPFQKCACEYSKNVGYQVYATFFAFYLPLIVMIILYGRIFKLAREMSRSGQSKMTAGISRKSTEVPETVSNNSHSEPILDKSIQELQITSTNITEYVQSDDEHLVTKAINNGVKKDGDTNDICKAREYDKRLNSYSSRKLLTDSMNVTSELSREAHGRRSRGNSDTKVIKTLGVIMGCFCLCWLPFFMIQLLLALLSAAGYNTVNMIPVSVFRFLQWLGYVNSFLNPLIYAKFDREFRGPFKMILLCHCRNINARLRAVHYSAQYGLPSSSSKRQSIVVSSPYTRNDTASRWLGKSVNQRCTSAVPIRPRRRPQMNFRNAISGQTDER
HEK293 lines stably expressing both the 22F cAMP sensor and Sm.5HTR were cultured in growth media supplemented with 10% dialyzed FRS. For cAMP assays in 96 well format, cells cultured in T-75 flasks were trypsinized (TrypLE Express, Gibco) and plated in solid white 96 well plates (Costar cat #3917) the day prior to assay at a density of 2.5×10^4 cells/well. The following day media was removed and replaced with assay buffer consisting of HBSS buffered with HEPES (20 mM, pH 7.4)+BSA (0.1% w/v) and D-luciferin sodium salt (1 mg/mL, Gold Biotechnology). Plates were equilibrated at room temperature for 1 hour, at which point 3-Isobutyl-1-methylxanthine (IBMX 200 μM, Sigma Aldrich) was added. Plates were equilibrated a further 30 minutes prior to test compound addition. […] Readings performed in 384 well format were modified so that cells were assayed in suspension. Cells were grown to 70% confluence in T-75 flasks, trypsinized and pelleted (300 RCF×5 minutes). Media was removed and cells were resuspended in 25 mL assay buffer supplemented with IBMX (200 μM). A 96 channel semi-automated pipet (Eppendorf epMotion 96) delivered 55 μL of cell suspension per well (5000 cells/well) into solid white 384 plates (Corning 3574).

The next assay has as its target Sm.5HTRL (Schistosoma mansoni, UniProt A0A173FEI8). As to the kind of experiment: GloSensor cAMP assay, HEK293 cells transiently transfected with Sm.5HTRL. It counts as cell-based. On the procedure:
as §2, §3

Where only a bound is given, the exact number is not on record here.

T1 sequence (G4V5G4 entry or part of it): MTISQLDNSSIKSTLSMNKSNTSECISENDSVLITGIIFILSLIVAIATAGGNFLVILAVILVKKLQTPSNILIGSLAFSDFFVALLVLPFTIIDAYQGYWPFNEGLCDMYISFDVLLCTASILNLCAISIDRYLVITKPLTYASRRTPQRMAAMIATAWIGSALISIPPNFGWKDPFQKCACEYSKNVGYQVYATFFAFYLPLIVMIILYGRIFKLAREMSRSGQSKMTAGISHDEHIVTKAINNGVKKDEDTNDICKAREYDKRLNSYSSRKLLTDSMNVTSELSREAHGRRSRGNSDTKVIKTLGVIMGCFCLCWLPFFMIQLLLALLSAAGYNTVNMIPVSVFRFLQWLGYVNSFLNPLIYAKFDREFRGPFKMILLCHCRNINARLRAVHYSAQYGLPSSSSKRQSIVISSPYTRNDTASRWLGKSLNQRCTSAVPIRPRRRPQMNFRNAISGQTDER
Sequence of Sm.5HTRL (A0A173FEI8 entry or part of it): as the sequence (A0A173FEI8 entry or part of it) above

For `CC(C)C[C@H]1C(=O)N2CCC[C@H]2[C@]2(O)O[C@](NC(=O)[C@@H]3C=C4c5cccc6[nH]c(Br)c(c56)C[C@H]4N(C)C3)(C(C)C)C(=O)N12` [bromocriptine], the IC50 in the assay with adult S. mansoni is 0.251 ± 0.067 µM; in assay [1] (read-out: IC50, inhibition of 5-HT evoked contractions) it was not above 1 µM. For the same compound, the “higher selectivity for the parasitic 5-HT receptor” value at Sm.5HTR [2] (Sm.5HTR over Hs.5HT7R) is on record as “about 10 fold”. The “potency (IC50) at Sm.5HTR, lower right quadrant of FIG. 13” value on Sm.5HTR [2] is reported as “sub-μM potency”. Moreover, at Hs.5HT7R, the “potency (IC50) at Hs.5HT7R, lower right quadrant of FIG. 13” value is given as “supra-μM potency”.

Consider `CSc1ccc2c(c1)C(N1CCN(C)CC1)Cc1ccccc1S2` (stereo not drawn) [methiothepin], for which the “antagonism of 5-HT stimulated cAMP generation” value at Sm.5HTR [2] (methiothepin 10 μM preincubation, 5-HT 10 μM, IBMX 200 μM (FIG. 2G)) is recorded as “antagonism of 5-HT stimulated cAMP generation”. Moreover, the “persistence of Sm.5HTR inhibition after antagonist wash-out” value (shortened to “persistence of Sm.5HTR inhibition”) at Sm.5HTR [3] is on record as “long-lasting inhibition”.

Regarding `CCN(CC)C(=O)[C@@H]1C=C2c3cccc4[nH]c(Br)c(c34)C[C@H]2N(C)C1` [BOL-148, 2-bromo-lysergic acid diethylamide], the IC50 in the assay with adult S. mansoni amounted to 0.029 ± 0.023 µM; on Sm.5HTR [4] (5-HT 500 nM, read-out: Sm.5HTR IC50 (antagonist)), 0.1 ± 0.02 µM. Besides, the “decrease of egg laying” value in the assay on adult schistosomes is “no effect”. The “agonist activity at Sm.5HTR, in words” value on Sm.5HTR [4] (FIG. 18C) is recorded as “Agonist activity is eliminated”.

Consider `NCCc1c[nH]c2ccc(O)cc12` [5-HT, Serotonin], for which the EC50 in the assay with adult S. mansoni (FIG. 19B, read-out: EC50, stimulation of adult schistosome movement) was found to be 52 ± 2 µM; at Sm.5HTRL (5-HT dose response, FIG. 2H, read-out: EC50, activation of Sm.5HTRL) it was 0.2 ± 0.03 µM. In addition, the “decrease of egg laying” value in the assay with adult schistosomes stood at 83%. Besides, the “greater sensitivity of Sm.5HTRL compared with Sm.5HTR” value on Sm.5HTRL (ratio of 5-HT EC50) was “about 10 fold”.

Take `Cc1nc2n(c(=O)c1CCN1CCC(c3noc4cc(F)ccc34)CC1)CCCC2` [risperidone]: the “persistence of Sm.5HTR inhibition” value at Sm.5HTR [3] was “long-lasting inhibition”.

With `CN1C[C@H](CNC(=O)OCc2ccccc2)C[C@@H]2c3cccc4c3c(cn4C)C[C@H]21` [metergoline], the “agonist efficacy at Sm.5HTR, in words” value on Sm.5HTR [2] (FIG. 10A) is reported as “no efficacy”. For the same compound, the Kb on Sm.5HTR [2] (antagonism of 5-HT evoked cAMP accumulation, FIG. 10F, read-out: affinity constants (KB), Schild regression analysis) came out at 4.53 µM. Moreover, the “nature of antagonism: right-shift in the 5-HT dose-response relationship” value on Sm.5HTR [2] (increasing doses of ligand, FIGS. 10B-D) is recorded as “competitive antagonism”. Further, at Sm.5HTR [3], the “persistence of Sm.5HTR inhibition” value was “long-lasting inhibition”.

Take `COc1cc2c(cc1OC)C1CC(=O)C(CC(C)C)CN1CC2` (stereo not drawn) [tetrabenazine]: the inhibition at 100 µM in assay [1] (read-out: inhibition of 5-HT evoked contractility) was approximately 50%. For the same compound, on Sm.5HTR [2], the “selectivity Sm.5HTR versus Hs.5HT7R (IC50 (Hs.5HT7R)/IC50 (Sm.5HTR)), in words” value is “selectivity for Sm.5HTR retained” and the “potency (IC50) at Sm.5HTR, lower right quadrant of FIG. 13” value is listed as “sub-μM potency”. In addition, the “potency (IC50) at Hs.5HT7R, lower right quadrant of FIG. 13” value on Hs.5HT7R is on record as “supra-μM potency”.

For the origin of these results see patent US10426772B2, “Use of ergot alkaloids as an anthelmintic agent” (priority 2016, dated 2019).
